{
  "source": "patent US20230096766A1",
  "about": "“AMINO ACID HAVING FUNCTIONAL GROUP CAPABLE OF INTERMOLECULAR HYDROGEN BONDING, PEPTIDE COMPOUND CONTAINING SAME AND METHOD FOR PRODUCTION THEREOF” (Chugai Seiyaku Kabushiki Kaisha, priority 2018, published 2023)",
  "note": "*1 amine or outer side, *2 acyl side, *3 side chain or, on linkers, in order; H or OH if unused. Where a SMILES comes first, the peptide text is derived from it. Bridges are numbered along the chain shown (N, C = ends). [ ]: non-standard residue; d: D form. The star is where a group is joined. ξ: configuration not given here. Phe(3-CONHMe,4-OMe) = CNC(=O)c1cc(C[C@H](N)C(=O)O)ccc1OC; Phe(4-COOH) = N[C@@H](Cc1ccc(C(=O)O)cc1)C(=O)O; ξGln(SO2Me) = CS(=O)(=O)NC(=O)CCC(N)C(=O)O; Ethyl(2-morpholino) = C1CN(CC*)CCO1; X9 = O=C([C@@H](CN[*:1])COCCO)[*:2]; X7 = O=C(C[C@H](COCCO)N[*:1])[*:2]; Hyp = O=C(O)[C@@H]1C[C@@H](O)CN1; NMeF = CN[C@@H](Cc1ccccc1)C(=O)O; NMeL = CN[C@@H](CC(C)C)C(=O)O; NMeV = CN[C@H](C(=O)O)C(C)C; Piperidide = C1CCN(*)CC1; dNMeA = CN[C@H](C)C(=O)O; Me2NCH2CH2 = CN(C)CC*; NBuGly = CCCCNCC(=O)O; NPrGly = CCCNCC(=O)O; Ethyl(2-OH) = OCC*; ξS = NC(CO)C(=O)O; N(OH)Me = CN(O)*; Sar = CNCC(=O)O; tBu = CC(C)(C)*",
  "data": [
    {"assay": "in vitro", "details": "human, Caco-2, Caco-2", "units": {"Papp": "×10⁻⁶ cm/s"}, "values": [
      {"smiles": "CCCCN1CC(=O)N(C)[C@@H](Cc2ccccc2)C(=O)N(C)[C@@H](CC(C)C)C(=O)N[C@@H](C(C)C)C(=O)N(C)[C@@H](CC(C)C)C(=O)N[C@H](C(=O)N2CCCCC2)CC(=O)N(C)CC(=O)N(C)[C@@H](CC(C)C)C(=O)NC(COCCN2CCOCC2)C(=O)N(C)[C@@H](CC(C)C)C(=O)N[C@@H]([C@@H](C)O)C1=O", "note": "(stereo partly drawn) [pd484] ([Sar][NMeL][ξS](Ethyl(2-morpholino))[NMeL]T[NBuGly][NMeF][NMeL]V[NMeL]D-Piperidide; lactam N-11)", "Papp": 1.8},
      {"smiles": "CCCCN1CC(=O)N(C)[C@@H](CC(C)C)C(=O)N[C@@H](COC(C)(C)C)C(=O)N(C)[C@@H](Cc2ccccc2)C(=O)N(C)[C@@H](C(C)C)C(=O)N[C@H](C(=O)N2CCCCC2)CC(=O)N[C@H](C(C)C)C(=O)N(C)[C@@H](Cc2ccccc2)C(=O)N[C@@H](COCCN(C)C)C(=O)N(C)[C@@H](CC(C)C)C(=O)N[C@@H]([C@@H](C)O)C1=O", "note": "[pd53] ([dV][NMeF]S(Me2NCH2CH2)[NMeL]T[NBuGly][NMeL]S(tBu)[NMeF][NMeV]D-Piperidide; lactam N-11)", "Papp": 0.14},
      {"smiles": "CCCCN1CC(=O)N(C)[C@@H](C(C)C)C(=O)N[C@H](C(=O)N2CCCCC2)CC(=O)N(C)[C@@H](CC(C)C)C(=O)NC(CCC(=O)NS(C)(=O)=O)C(=O)N(C)[C@@H](CC(C)C)C(=O)N(C)[C@@H](Cc2ccccc2)C(=O)N[C@@H](CC(C)C)C(=O)N(C)[C@@H](Cc2ccccc2)C(=O)N(C)[C@@H](CC(C)C)C(=O)N[C@@H]([C@@H](C)O)C1=O", "note": "(stereo partly drawn) [pd62] ([NMeL][ξGln(SO2Me)][NMeL][NMeF]L[NMeF][NMeL]T[NBuGly][NMeV]D-Piperidide; lactam N-11)", "Papp": "< 0.13"}
    ]},
    {"assay": "in vitro", "details": "human, Caco-2, Caco-2 (cm/sec)", "units": {"Papp": "×10⁻⁶ cm/s"}, "values": [
      {"smiles": "CCCCN1CC(=O)N(C)[C@@H](Cc2ccccc2)C(=O)N[C@@H](COCCO)CC(=O)N(C)[C@@H](CC(C)C)C(=O)N[C@@H]([C@@H](C)O)C(=O)N(CCC)CC(=O)N(C)[C@@H](Cc2ccccc2)C(=O)N(C)[C@@H](CC(C)C)C(=O)N[C@@H](CC(C)C)C(=O)N(C)[C@@H](CC(C)C)C(=O)N[C@H](C(=O)N2CCCCC2)CC1=O", "note": "[AP25] ([NBuGly][NMeF][X7][NMeL]T[NPrGly][NMeF][NMeL]L[NMeL]D-Piperidide; lactam N-11)", "Papp": 0.62},
      {"smiles": "CC(C)C[C@@H]1NC(=O)[C@H](CC(C)C)N(C)C(=O)C[C@@H](C(=O)N2CCCCC2)NC(=O)[C@H](CC(C)C)N(C)C(=O)CN(C)C(=O)[C@H]([C@@H](C)O)NC(=O)[C@H](C(C)C)N(C)C(=O)[C@H](CC(C)C)N(C)C(=O)[C@H](Cc2ccc(C(=O)N(C)O)cc2)NC(=O)[C@H](CC(C)C)N(C)C(=O)[C@H](CC(C)C)N(C)C1=O", "note": "[AP253] ([NMeL]L[NMeL][NMeL][Phe(4-COOH)](N(OH)Me)[NMeL][NMeV]T[Sar][NMeL]D-Piperidide; lactam N-11)", "Papp": 0.12},
      {"smiles": "CC(C)C[C@H]1NC(=O)C[C@@H](C(=O)N2CCCCC2)NC(=O)[C@H](CC(C)C)N(C)C(=O)[C@H](Cc2ccccc2)NC(=O)[C@H](Cc2ccccc2)N(C)C(=O)[C@H]([C@@H](C)O)NC(=O)[C@H](CC(C)C)N(C)C(=O)[C@@H]2C[C@@H](OCCO)CN2C(=O)[C@H](CC(C)C)N(C)C(=O)[C@H](COC(C)(C)C)NC(=O)[C@@H]2CCCN2C1=O", "note": "[AP234] ([dL]PS(tBu)[NMeL][Hyp](Ethyl(2-OH))[NMeL]T[NMeF]F[NMeL]D-Piperidide; lactam N-11)", "Papp": 1.3},
      {"smiles": "CCCCN1CC(=O)N(C)[C@@H](CC(C)C)C(=O)N[C@@H](Cc2ccc(OC)c(C(=O)NC)c2)C(=O)N(C)[C@@H](CC(C)C)C(=O)N(C)[C@@H](CC(C)C)C(=O)N[C@H](C(=O)N2CCCCC2)CC(=O)N[C@H](CC(C)C)C(=O)N(C)[C@@H](Cc2ccccc2)C(=O)N[C@@H](C(C)C)C(=O)N(C)[C@@H](CC(C)C)C(=O)N[C@@H]([C@@H](C)O)C1=O", "note": "[AP36] ([dL][NMeF]V[NMeL]T[NBuGly][NMeL][Phe(3-CONHMe,4-OMe)][NMeL][NMeL]D-Piperidide; lactam N-11)", "Papp": 0.26},
      {"smiles": "CCCCN1CC(=O)N(C)[C@@H](CC(C)C)C(=O)NC[C@@H](COCCO)C(=O)N(C)[C@@H](Cc2ccccc2)C(=O)N(C)[C@@H](CC(C)C)C(=O)N[C@H](C(=O)N2CCCCC2)CC(=O)N[C@H](CC(C)C)C(=O)N(C)[C@@H](CC(C)C)C(=O)N[C@@H](Cc2ccccc2)C(=O)N(C)[C@@H](CC(C)C)C(=O)N[C@@H]([C@@H](C)O)C1=O", "note": "[AP128] ([dL][NMeL]F[NMeL]T[NBuGly][NMeL][X9][NMeF][NMeL]D-Piperidide; lactam N-11)", "Papp": 0.78},
      {"smiles": "CC(C)C[C@@H]1NC(=O)[C@H](Cc2ccccc2)N(C)C(=O)[C@H](CC(C)C)N(C)C(=O)[C@@H](C)N(C)C(=O)C[C@@H](C(=O)N2CCCCC2)NC(=O)[C@H](CC(C)C)N(C)C(=O)[C@H](Cc2ccccc2)N(C)C(=O)[C@H]([C@@H](C)O)NC(=O)[C@H](Cc2ccccc2)N(C)C1=O", "note": "[pd223] ([dNMeA][NMeL][NMeF]L[NMeF]T[NMeF][NMeL]D-Piperidide; lactam N-9)", "Papp": 1.1}
    ]}
  ]
}
